Here are results for 1 compound from patent publication US9034909B2, “Use of organic compound for the treatment of Noonan Syndrome” (Novartis AG, priority 2011, dated 2015).

This assay addresses MEK1 (Homo sapiens, UniProt Q02750). The experiment in a line: isolated enzyme assay, MEK1 inhibition. The note with it: read-out: 50% inhibition (IC50) value. Type of assay: biochemical. The text has this: The compound of Formula (I) is 6-(4-bromo-2-fluorophenylamino)-7-fluoro-3-methyl-3H-benzoimidazole-5-carboxylic acid (2-hydroxyethoxy)-amide (COMPOUND A). The compound of Formula (I) is described in PCT Application No. WO 03/077914, which is hereby incorporated by reference in its entirety hereto, and methods for its preparation have been described, for example, in Example 18 therein.

MEK1, sequence (Q02750 whole entry, species assumed): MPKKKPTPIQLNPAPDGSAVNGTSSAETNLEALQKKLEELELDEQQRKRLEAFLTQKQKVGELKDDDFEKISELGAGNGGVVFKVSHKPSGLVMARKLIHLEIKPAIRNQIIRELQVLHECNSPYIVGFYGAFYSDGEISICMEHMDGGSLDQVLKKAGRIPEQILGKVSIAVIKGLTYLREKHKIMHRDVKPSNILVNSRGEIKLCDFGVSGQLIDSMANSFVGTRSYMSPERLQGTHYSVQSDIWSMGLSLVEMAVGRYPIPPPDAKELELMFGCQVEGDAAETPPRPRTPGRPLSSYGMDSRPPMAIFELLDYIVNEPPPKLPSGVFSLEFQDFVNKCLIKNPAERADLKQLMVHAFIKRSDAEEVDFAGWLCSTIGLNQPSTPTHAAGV

In the case of `Cn1cnc2c(F)c(Nc3ccc(Br)cc3F)c(C(=O)NOCCO)cc21` [COMPOUND A, 6-(4-bromo-2-fluorophenylamino)-7-fluoro-3-methyl-3H-benzoimidazole-5-carboxylic acid (2-hydroxyethoxy)-amide], the IC50 stood at 12 nM.

A word on the IC50: it is the concentration at which inhibition is half-maximal.
